Measured values as given in the supplement of paper PMC10307832.

How the values were obtained:
Assay in all cases: relative viability (nuclei count vs DMSO), 5 days (fraction); higher = more cells survive
Calu-6 = test system: Calu-6
Method in brief: (§1)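 Values are medians from duplicate plates. Each reflects relative viability, defined as the nuclei count of treated wells over that of vehicle wells. Lung cancer cell lines in 1536-well plates were pin-tool dosed one day after seeding with one drug alone or with a fixed anchor-drug dose plus five library-drug doses (not always all listed) in √10 steps, then fixed, stained and imaged at 4× after 5 days.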

NCI-H1623 = test system: NCI-H1623
Method in brief: as §1

NCI-H2342 = test system: NCI-H2342
Method in brief: as §1

EBC-1 = test system: EBC-1
Method in brief: as §1

IA-LM = test system: IA-LM
Method in brief: as §1

A549 = test system: A549
Method in brief: as §1

NCI-H1703 = test system: NCI-H1703
Method in brief: as §1

NCI-H1563 = test system: NCI-H1563
Method in brief: as §1

NCI-H1299 = test system: NCI-H1299
Method in brief: as §1

SW 900 = test system: SW 900
Method in brief: as §1

NCI-H1648 = test system: NCI-H1648
Method in brief: as §1

NCI-H522 = test system: NCI-H522
Method in brief: as §1

With `Cc1cnc(-c2cnc(NCCNc3ccc(C#N)cn3)nc2-c2ccc(Cl)cc2Cl)[nH]1` + COc1cc2c(Oc3ccc(NC(=O)C4(C(=O)Nc5ccc(F)cc5)CC4)cc3F)ccnc2cc1OCCCN1CCOCC1 [Foretinib] (partner 0.25 µM) the relative viability (Calu-6; first compound 0.08 µM) was 0.906, the relative viability (Calu-6; first compound 0.253 µM) was 0.826 and the relative viability (Calu-6; first compound 0.8 µM) was 0.874. It also gave a relative viability (Calu-6; first compound 2.53 µM) of 0.784, a relative viability (NCI-H1623; first compound 0.08 µM) of 0.785 and a relative viability (NCI-H1623; first compound 0.253 µM) of 0.828. It also gave a relative viability (NCI-H1623; first compound 0.8 µM) of 0.821, a relative viability (NCI-H1623; first compound 2.53 µM) of 0.849 and a relative viability (NCI-H2342; first compound 0.08 µM) of 0.974. The relative viability (NCI-H2342; first compound 0.253 µM) was 0.903, the relative viability (NCI-H2342; first compound 0.8 µM) was 1.03 and the relative viability (NCI-H2342; first compound 2.53 µM) was 1.07. The relative viability (EBC-1; first compound 0.08 µM) was 0.0986, the relative viability (EBC-1; first compound 0.253 µM) was 0.105 and the relative viability (EBC-1; first compound 0.8 µM) was 0.102. The relative viability (EBC-1; first compound 2.53 µM) was 0.112, the relative viability (IA-LM; first compound 0.08 µM) was 0.95 and the relative viability (IA-LM; first compound 0.253 µM) was 1.09. It also gave a relative viability (IA-LM; first compound 0.8 µM) of 1.44, a relative viability (IA-LM; first compound 2.53 µM) of 0.988 and a relative viability (A549; first compound 0.08 µM) of 0.984. The relative viability (A549; first compound 0.253 µM) was 0.963, the relative viability (A549; first compound 0.8 µM) was 1.02 and the relative viability (A549; first compound 2.53 µM) was 0.451. For the same molecule, the relative viability (NCI-H1703; first compound 0.08 µM) was 0.333, the relative viability (NCI-H1703; first compound 0.253 µM) was 0.383 and the relative viability (NCI-H1703; first compound 0.8 µM) was 0.362. The relative viability (NCI-H1703; first compound 2.53 µM) was 0.433, the relative viability (NCI-H1563; first compound 0.08 µM) was 0.925 and the relative viability (NCI-H1563; first compound 0.253 µM) was 0.885. It also gave a relative viability (NCI-H1563; first compound 0.8 µM) of 0.951, a relative viability (NCI-H1563; first compound 2.53 µM) of 1.01 and a relative viability (NCI-H1299; first compound 0.08 µM) of 1.11. For the same molecule, the relative viability (NCI-H1299; first compound 0.253 µM) was 1.05, the relative viability (NCI-H1299; first compound 0.8 µM) was 1.09 and the relative viability (NCI-H1299; first compound 2.53 µM) was 1.06. For the same molecule, the relative viability (SW 900; first compound 0.08 µM) was 0.781, the relative viability (SW 900; first compound 0.253 µM) was 0.78 and the relative viability (SW 900; first compound 0.8 µM) was 0.789. The relative viability (SW 900; first compound 2.53 µM) was 0.717.
Molecule `Cc1cnc(-c2cnc(NCCNc3ccc(C#N)cn3)nc2-c2ccc(Cl)cc2Cl)[nH]1` + COc1cccc2cc(-c3nc([C@H]4CC[C@H](C(=O)O)CC4)n4ncnc(N)c34)[nH]c12 [OSI-027] (partner 0.5 µM) has a relative viability (NCI-H1648; first compound 0.08 µM) of 0.24, a relative viability (NCI-H1648; first compound 0.253 µM) of 0.259 and a relative viability (NCI-H1648; first compound 0.8 µM) of 0.242. It also gave a relative viability (NCI-H1648; first compound 2.53 µM) of 0.289, a relative viability (NCI-H1623; first compound 0.08 µM) of 0.478 and a relative viability (NCI-H1623; first compound 0.253 µM) of 0.417. The relative viability (NCI-H1623; first compound 0.8 µM) was 0.413, the relative viability (NCI-H1623; first compound 2.53 µM) was 0.48 and the relative viability (NCI-H522; first compound 0.08 µM) was 0.653. The relative viability (NCI-H522; first compound 0.253 µM) was 0.705, the relative viability (NCI-H522; first compound 0.8 µM) was 0.647 and the relative viability (NCI-H522; first compound 2.53 µM) was 0.885. It also gave a relative viability (NCI-H2342; first compound 0.08 µM) of 0.653, a relative viability (NCI-H2342; first compound 0.253 µM) of 0.546 and a relative viability (NCI-H2342; first compound 0.8 µM) of 0.556. The relative viability (NCI-H2342; first compound 2.53 µM) was 0.53, the relative viability (NCI-H1563; first compound 0.08 µM) was 0.798 and the relative viability (NCI-H1563; first compound 0.253 µM) was 0.733. For the same molecule, the relative viability (NCI-H1563; first compound 0.8 µM) was 0.758, the relative viability (NCI-H1563; first compound 2.53 µM) was 0.78 and the relative viability (SW 900; first compound 0.08 µM) was 0.695. The relative viability (SW 900; first compound 0.253 µM) was 0.56, the relative viability (SW 900; first compound 0.8 µM) was 0.502 and the relative viability (SW 900; first compound 2.53 µM) was 0.546.
`Cc1cnc(-c2cnc(NCCNc3ccc(C#N)cn3)nc2-c2ccc(Cl)cc2Cl)[nH]1` + Cc1cc(Nc2cc(N3CCN(C)CC3)nc(Sc3ccc(NC(=O)C4CC4)cc3)n2)n[nH]1 [Tozasertib] (partner 0.1 µM) showed a relative viability (NCI-H1648; first compound 0.08 µM) of 0.487, a relative viability (NCI-H1648; first compound 0.253 µM) of 0.502 and a relative viability (NCI-H1648; first compound 0.8 µM) of 0.465. It also gave a relative viability (NCI-H1648; first compound 2.53 µM) of 0.52, a relative viability (NCI-H1623; first compound 0.08 µM) of 0.477 and a relative viability (NCI-H1623; first compound 0.253 µM) of 0.426. It also gave a relative viability (NCI-H1623; first compound 0.8 µM) of 0.414, a relative viability (NCI-H1623; first compound 2.53 µM) of 0.417 and a relative viability (NCI-H522; first compound 0.08 µM) of 0.629. The relative viability (NCI-H522; first compound 0.8 µM) was 0.506, the relative viability (NCI-H522; first compound 2.53 µM) was 0.591 and the relative viability (NCI-H2342; first compound 0.08 µM) was 0.519. For the same molecule, the relative viability (NCI-H2342; first compound 0.253 µM) was 0.513, the relative viability (NCI-H2342; first compound 0.8 µM) was 0.507 and the relative viability (NCI-H2342; first compound 2.53 µM) was 0.505. For the same molecule, the relative viability (SW 900; first compound 0.08 µM) was 0.667, the relative viability (SW 900; first compound 0.253 µM) was 0.511 and the relative viability (SW 900; first compound 0.8 µM) was 0.439. For the same molecule, the relative viability (SW 900; first compound 2.53 µM) was 0.415.
Molecule `Cc1cnc(-c2cnc(NCCNc3ccc(C#N)cn3)nc2-c2ccc(Cl)cc2Cl)[nH]1` + N=C(N)NC(=N)NCCc1ccccc1 [Phenformin] (partner 250 µM) has a relative viability (NCI-H1623; first compound 0.08 µM) of 0.527, a relative viability (NCI-H1623; first compound 0.253 µM) of 0.503 and a relative viability (NCI-H1623; first compound 0.8 µM) of 0.581. For the same molecule, the relative viability (NCI-H1623; first compound 2.53 µM) was 0.589, the relative viability (NCI-H522; first compound 0.08 µM) was 0.639 and the relative viability (NCI-H522; first compound 0.253 µM) was 0.707. It also gave a relative viability (NCI-H522; first compound 0.8 µM) of 0.65, a relative viability (NCI-H522; first compound 2.53 µM) of 0.666 and a relative viability (NCI-H2342; first compound 0.08 µM) of 0.622. For the same molecule, the relative viability (NCI-H2342; first compound 0.8 µM) was 0.635, the relative viability (NCI-H2342; first compound 2.53 µM) was 0.577 and the relative viability (A549; first compound 0.08 µM) was 0.168. The relative viability (A549; first compound 0.253 µM) was 0.154, the relative viability (A549; first compound 0.8 µM) was 0.151 and the relative viability (A549; first compound 2.53 µM) was 0.154. For the same molecule, the relative viability (NCI-H1563; first compound 0.08 µM) was 0.649, the relative viability (NCI-H1563; first compound 0.253 µM) was 0.647 and the relative viability (NCI-H1563; first compound 0.8 µM) was 0.636. The relative viability (NCI-H1563; first compound 2.53 µM) was 0.635, the relative viability (SW 900; first compound 0.08 µM) was 0.771 and the relative viability (SW 900; first compound 0.253 µM) was 0.588. For the same molecule, the relative viability (SW 900; first compound 0.8 µM) was 0.644 and the relative viability (SW 900; first compound 2.53 µM) was 0.391.
